According to publication PMC5654471 (Bioorganic & medicinal chemistry letters, 2016):

Legend:
MOLM-14 cells [1] = test: ROS production; format: cell-based; settings: approximately 2 hours post-treatment
THP-1 cells = test: ROS production; format: cell-based; settings: approximately 2 hours post-treatment
MOLM-14 cells [2] = test: Double strand DNA breaks, γ-H2Ax immunofluorescence; format: cell-based; settings: 24 hours exposure, 200 nM, 1.0 and 2.0 µM
female NSG mice = test: Safety and tolerability in NSG mice; format: in vivo

O=C1C(C2=C(N3CC3)C(=O)c3ccccc3C2=O)=C(N2CC2)C(=O)c2ccccc21 [Compound 3, 3,3'-Di(aziridin-1-yl)-[2,2'-binaphthalene]-1,1',4,4'-tetraone]
ROS production (RFU) (MOLM-14 cells [1]): dose-dependent increase in ROS production | ROS production (RFU) (THP-1 cells): dose-dependent increase in ROS production | γ-H2Ax phosphorylation (double strand DNA breaks) (MOLM-14 cells [2]): substantial γ-H2Ax phosphorylation | tolerability (female NSG mice; 5, 10 and 15 mg/kg IP for 5 consecutive days, one week observation): tolerated the compound well | mean body weight loss (female NSG mice; mouse, in vivo, ip): ≤ 10%
